According to patent publication US7563899B2, “(S)-N-methylnaltrexone” (Progenics Pharmaceuticals, Inc., priority 2005, dated 2009):
Structures can show the parent of a compound that is named as a salt.

Experiments:
[1] = target: human recombinant mu opioid receptors (Homo sapiens, UniProt P35372); assay: Radioligand binding assay, mu opioid receptor
Method: (§1) Radioligand binding assays were conducted to determine the binding specificity of S-N-methynaltrexone for μ-, κ-, and δ-opiate receptors using methods adapted from scientific literature (Simonin, F et al 1994, Mol. Pharmacol 46:1015-1021; Maguire, P. et al 1992, Eur. J. Pharmacol. 213:219-225; Simonin, F. et al PNAS USA 92(15):1431-1437; Wang, J B 1994, FEBS Lett 338:217-222).

[2] = target: human recombinant kappa opioid receptors (Homo sapiens, UniProt P41145); assay: Radioligand binding assay, kappa opioid receptor
Method: as §1

[3] = target: T1, μ-opioid receptors in the guinea pig ileum (Cavia porcellus, UniProt A0ACM8Q262); assay: Guinea pig ileum bioassay, test for agonist activity (inhibition of electrically evoked twitch contractions); conditions: for Response to the compound (decrease in twitch contraction amplitude): percent of control response to DAMGO 1.0E−07 M
Method: (§2) Experimental Conditions. Segments of guinea pig terminal ileum were suspended in 20-ml organ baths filled with an oxygenated (95% O2 and 5% CO2) and pre-warmed (37° C.) physiological salt solution of the following composition (in mM): NaCl 118.0, KCl 4.7, MgSO4 1.2, CaCl2 2.5, KH2PO4 1.2, NaHCO3 25.0 and glucose 11.0 (pH 7.4). Additional experimental conditions were as described in Hutchinson et al. (1975) Brit. J. Pharmacol., 55: 541-546.
(§3) Indomethacin (1 μM), nor-binaltorphimine (0.01 μM), methysergide (1 μM), ondansetron (10 μM) and GR113808 (0.1 μM) were also present throughout the experiments to prevent prostanoid release and to block the k-opioid, 5-HT2, 5-HT3 and 5-HT4 receptors, respectively. The tissues were connected to force transducers for isometric tension recordings. They were stretched to a resting tension of 1 g then allowed to equilibrate for 60 min during which time they were washed repeatedly and the tension readjusted. Thereafter, they were stimulated electrically with pulses of minimal intensity to trigger maximal contractions and 1 ms duration, delivered at 0.1 Hz by a constant current stimulator.
Test for agonist activity. […] The different concentrations were added cumulatively and each was left in contact with the tissues until a stable response was obtained or for a maximum of 15 min.
(§4) Analysis and Expression of Results. The parameter measured was the maximum change in the amplitude of the electrically-evoked twitch contractions induced by each compound concentration.

[4] = target: T1, μ-opioid receptors in the guinea pig ileum; assay: Guinea pig ileum bioassay, test for antagonist activity (against DAMGO-induced response); conditions: for Response to DAMGO (1.0E−07 M) in the presence of the compound: percent of control response to DAMGO, mean, n=2
Method: as §2, §3
Test for antagonist activity. […] Each concentration was left in contact with the tissues until a stable response was obtained or for a maximum of 15 min.
as §4

[5] = tested on: gastrointestinal transit in rats; assay: Gastrointestinal transit (charcoal motility) in rats, alone or before morphine; assay type: in vivo, rat; conditions: for Mean Motility: ratio of length of charcoal transit/total intestine length, * p<0.05 vs vehicle
Method: F. et al J. Pharmacol. Exptl. Therap. 133: 400-408, 1961; D. E. Gmerek, et al J. Pharmacol. Exptl. Ther. 236: 8-13, 1986; and O. Yamamoto et al Neurogastroenterol. Motil. 10: 523-532, 1998.
A control group of rats received 2 mL/kg of a 0.9% saline solution (n=10). After 15 minutes, rats were subcutaneously injected with saline (1 mL/kg) or morphine (3 mg/kg). A 10% suspension of activated charcoal in 0.25% methylcellulose was administered orally at 10 mL/kg to the rats 20 minutes (±2 minutes) after the subcutaneous dose of morphine or saline. The rats were euthanized 25 minutes (±3 minutes) after receiving the charcoal and the intestines were removed and lightly stretched on moist paper along a meterstick. The small intestine from pyloric sphincter to caecum was measured and the distance traveled by the charcoal as a fraction of that length was evaluated for each rat.
Statistically significant effects were determined by ANOVA with Tukey HSD Multiple Comparison Test. Differences with p values <0.05 were considered statistically significant.
Values for charcoal motility were expressed as a percent effect and were calculated in the following manner: The individual distance traveled by the charcoal in centimeters was divided by the total length of the intestines in centimeters (pyloric sphincter to caecum) for each rat. Mean values were calculated for each group, and the percent effect was calculated using the following formula: […]

[6] = target: T2, human μ (mu, MOP) receptor (Homo sapiens, UniProt P35372); assay: cAMP assay in CHO cells expressing human mu receptor, antagonist assay; assay type: cell-based; conditions: for cAMP antagonist assay value (Table IX.2): then 30 μM DAMGO, then forskolin
T2 construct: expressed in transfected cells; host or cells: CHO cells
Method: Thus full antagonist effect was equivalent to forskolin without any addition of μ-opioid agonist.
Cells were grown to confluence in 96-well plates. Cells were washed and equilibrated in physiological buffer before analysis. 20 ul of drug, 100 uM IBMX and 10 uM forskolin were added and incubated for 25 minutes at room temperature and then the reaction was stopped with the addition of 0.1 N HCl. Extracted cAMP level was determined via competitive EIA assay utilizing alkaline phosphatase. Additional experimental conditions were as described in Toll L., J Pharmacol Exp Ther. (1995) 273(2): 721-7.

[7] = 1 mg/kg sc + Morphine 3 mg/kg sc
[8] = 3 mg/kg sc + Morphine 3 mg/kg sc
[9] = 10 mg/kg sc + Morphine 3 mg/kg sc

T2 sequence (P35372 whole entry): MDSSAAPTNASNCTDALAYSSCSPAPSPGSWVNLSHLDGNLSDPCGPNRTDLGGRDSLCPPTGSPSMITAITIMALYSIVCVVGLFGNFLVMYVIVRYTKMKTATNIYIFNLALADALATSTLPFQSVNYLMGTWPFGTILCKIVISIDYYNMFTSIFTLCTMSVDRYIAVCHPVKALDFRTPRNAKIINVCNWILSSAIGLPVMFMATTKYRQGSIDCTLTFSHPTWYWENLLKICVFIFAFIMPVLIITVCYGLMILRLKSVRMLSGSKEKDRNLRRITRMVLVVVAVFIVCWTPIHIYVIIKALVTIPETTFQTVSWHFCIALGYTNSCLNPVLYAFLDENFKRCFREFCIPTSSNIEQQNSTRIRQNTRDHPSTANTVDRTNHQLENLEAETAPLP
T1 sequence (A0ACM8Q262 1-400): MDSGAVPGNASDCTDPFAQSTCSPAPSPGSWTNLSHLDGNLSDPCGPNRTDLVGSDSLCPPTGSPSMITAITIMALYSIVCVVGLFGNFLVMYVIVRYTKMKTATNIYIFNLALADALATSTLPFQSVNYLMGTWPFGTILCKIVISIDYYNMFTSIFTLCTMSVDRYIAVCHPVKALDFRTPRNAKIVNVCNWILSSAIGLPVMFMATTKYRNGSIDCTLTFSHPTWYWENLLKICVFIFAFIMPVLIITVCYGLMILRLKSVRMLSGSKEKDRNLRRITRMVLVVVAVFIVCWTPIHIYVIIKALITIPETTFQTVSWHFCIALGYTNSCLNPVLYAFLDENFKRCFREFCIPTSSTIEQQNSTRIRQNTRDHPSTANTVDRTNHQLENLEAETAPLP
Chain of human recombinant mu opioid receptors (P35372 whole entry): as the sequence (P35372 whole entry) above
Chain of human recombinant kappa opioid receptors (P41145 whole entry): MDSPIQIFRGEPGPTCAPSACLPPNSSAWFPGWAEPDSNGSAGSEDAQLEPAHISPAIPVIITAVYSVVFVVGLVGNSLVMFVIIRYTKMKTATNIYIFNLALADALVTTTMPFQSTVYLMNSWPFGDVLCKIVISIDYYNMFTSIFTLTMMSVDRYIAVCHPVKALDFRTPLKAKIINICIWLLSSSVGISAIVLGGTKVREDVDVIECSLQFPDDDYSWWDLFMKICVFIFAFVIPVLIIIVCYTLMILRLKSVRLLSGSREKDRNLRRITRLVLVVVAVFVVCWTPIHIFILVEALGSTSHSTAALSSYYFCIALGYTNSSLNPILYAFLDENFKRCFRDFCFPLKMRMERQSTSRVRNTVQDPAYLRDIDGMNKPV

## C[N@@+]1(CC2CC2)CC[C@]23c4c5ccc(O)c4OC2C(=O)CCC3(O)C1C5 (stereo partly drawn) [S-MNTX, (S)-N-(cyclopropylmethyl)-noroxymorphone methyl salt]
[1]
  Ki: 198 nM
[2]
  Ki: 1760 nM
[3]; 1.0E−04 M, mean, n=2
  Response to the compound (decrease in twitch contraction amplitude): 109%
[3]; 1.0E−05 M, mean, n=2
  Response to the compound (decrease in twitch contraction amplitude): 92%
[3]; 1.0E−06 M, mean, n=2
  Response to the compound (decrease in twitch contraction amplitude): 35%
[3]; 1.0E−07 M, mean, n=2
  Response to the compound (decrease in twitch contraction amplitude): 5%
[3]; 1.0E−08 M, mean, n=2
  Response to the compound (decrease in twitch contraction amplitude): 0%
[3]; 3.0E−05 M, mean, n=2
  Response to the compound (decrease in twitch contraction amplitude): 109%
[3]; 3.0E−06 M, mean, n=2
  Response to the compound (decrease in twitch contraction amplitude): 59%
[3]; 3.0E−07 M, mean, n=2
  Response to the compound (decrease in twitch contraction amplitude): 16%
[3]; 3.0E−08 M, mean, n=2
  Response to the compound (decrease in twitch contraction amplitude): 0%
[3]; compound 1.0E−04 M + naloxone 1.0E−07 M, percent of control response to DAMGO, mean, n=2
  Response to the compound +naloxone: 17%
[3]; field-stimulated guinea pig ileum
  behaviour at the μ-opioid receptors in this tissue: behaves as an agonist
[3]; guinea pig ileum, linear regression of concentration-response curve
  EC50: 2000 nM
[4]; compound 1.0E−04 M
  Response to DAMGO (1.0E−07 M) in the presence of the compound: 110%
[4]; compound 1.0E−05 M
  Response to DAMGO (1.0E−07 M) in the presence of the compound: 105%
[4]; compound 1.0E−06 M
  Response to DAMGO (1.0E−07 M) in the presence of the compound: 100%
[4]; compound 1.0E−07 M
  Response to DAMGO (1.0E−07 M) in the presence of the compound: 100%
[4]; compound 1.0E−08 M
  Response to DAMGO (1.0E−07 M) in the presence of the compound: 100%
[4]; compound 3.0E−05 M
  Response to DAMGO (1.0E−07 M) in the presence of the compound: 109%
[4]; compound 3.0E−06 M
  Response to DAMGO (1.0E−07 M) in the presence of the compound: 102%
[4]; compound 3.0E−07 M
  Response to DAMGO (1.0E−07 M) in the presence of the compound: 100%
[4]; compound 3.0E−08 M
  Response to DAMGO (1.0E−07 M) in the presence of the compound: 100%
[4]; guinea pig ileum, against DAMGO 1.0E−07 M
  Antagonist activity IC50 value: No antagonist activity
[5]; [7]
  Percent Decrease: 54%
  Mean Motility: 0.281*
[5]; [8]
  Percent Decrease: 57%
  Mean Motility: 0.258*
[5]; [9]
  Percent Decrease: 80%
  Mean Motility: 0.122*
[5]; 10 mg/kg sc + Saline
  Percent Decrease: 21%
  Mean Motility: 0.476*
[5]; rats, sc, 15 minutes before morphine 3 mg/kg
  effect on GI transit in combination with / prior to morphine: dramatic synergistic agonist effect in decreasing GI motility
[5]; rats, sc, alone
  effect on GI transit when administered alone: decreased GI motility
[6]; cAMP antagonist assay
  antagonist effect in cAMP assay: no antagonist effect
[6]; log{M} conc −4.0
  cAMP antagonist assay value (Table IX.2): −13
[6]; log{M} conc −4.5
  cAMP antagonist assay value (Table IX.2): −13
[6]; log{M} conc −5.0
  cAMP antagonist assay value (Table IX.2): −9
[6]; log{M} conc −5.5
  cAMP antagonist assay value (Table IX.2): −8
[6]; log{M} conc −6.0
  cAMP antagonist assay value (Table IX.2): −1
[6]; log{M} conc −6.5
  cAMP antagonist assay value (Table IX.2): 9
[6]; log{M} conc −7.0
  cAMP antagonist assay value (Table IX.2): 5
[6]; log{M} conc −7.5
  cAMP antagonist assay value (Table IX.2): 6
[6]; log{M} conc −8.0
  cAMP antagonist assay value (Table IX.2): 4
[6]; log{M} conc −9.0
  cAMP antagonist assay value (Table IX.2): 0
